System: cultured human mast cells (CHMC)
Assay: CHMC low cell density IgE activation: tryptase assay
Assay type: cell-based
Conditions: anti-IgE
Protocol: Pellet CHMC cells (980 rpm, 10 min) and resuspend in pre-warmed MT. Add 65 ul of cells to each 96-well plate. Depending on the degranulation activity for each particular CHMC donor, load 1000-1500 cells/well. Mix four times followed by a 1 hr incubation at 37° C. […] Stimulate cells by adding 25 ul of 6× anti-IgE solution to the appropriate plates. Add 25 ul MT to un-stimulated control wells. Mix twice following addition of the anti-IgE. Incubate at 37° C. for 30 minutes. […] Spin plates at 1000 rpm for 10 min to pellet cells. Transfer 25 ul of supernatant to a 96-well black bottom plate and add 100 ul of freshly diluted tryptase substrate solution to each well. Incubate plates at room temperature for 30 min.

IC50 [nM]	IC50 (Homo sapiens, Mast cell) [nM]	Structure (SMILES)
326		COC(=O)C1Cc2cc(Nc3ncc(F)c(Nc4ccc(OCCO)nc4)n3)ccc2O1 (racemic) [R927025, (±)-N2-(2,3-Dihydro-2-methoxycarbonylbenzofuran-5-yl)-5-fluoro-N4-[2-(2-hydroxyethyleneoxy)pyridin-5-yl]-5-fluoro-2,4-pyrimidinediamine]
10000		C[C@H](Nc1ncc(F)c(N[C@@H](C)[C@H](O)c2ccccc2)n1)[C@H](O)c1ccccc1 [R925767, N2,N4-Bis[(2R)-hydroxy-(1S)-methyl-2-phenylethyl]-5-fluoro-2,4-pyrimidinediamine]
> 10000		Fc1cnc(NCc2ccc3c(c2)OCO3)nc1NCc1ccc2c(c1)OCO2 [R925770, N2,N4-Bis(piperonyl)-5-fluoro-2,4-pyrimidineamine]
926		Oc1cccc(Nc2ncc(F)c(Nc3ccc4c(c3)OCCO4)n2)c1 [R926210, N4-(3,4-Ethylenedioxyphenyl)-5-fluoro-N2-(3-hydroxyphenyl)-2,4-pyrimidinediamine]
> 10000		O=C(O)COc1ccc(Nc2ncc(F)c(Nc3ccc4c(c3)OCCO4)n2)cc1 [R926238, N2-(4-Carboxymethyleneoxyphenyl)-N4-(3,4-ethylenedioxyphenyl)-5-fluoro-2,4-pyrimidinediamine]
> 10000		Cc1cc(Nc2ncc(F)c(Nc3ccc(O)c(C)c3)n2)ccc1O [R926469, N2,N4′-Bis(4-hydroxy-3-methylphenyl)-5-fluoro-2,4-pyrimidinediamine]
> 10000		O=C(O)COc1cccc(Nc2ncc(F)c(Nc3ccc4c(c3)OCCO4)n2)c1 [R926483, N2-(3-Carboxymethyleneoxyphenyl)-N4-(3,4-ethylenedioxyphenyl)-5-fluoro-2,4-pyrimidinediamine]
583		Oc1cccc(Nc2nc(Nc3ccc4oc(CN5CCNCC5)cc4c3)ncc2F)c1 [R926770, 5-Fluoro-N4-(3-hydroxyphenyl)-N2-[2-(N-piperazinomethylene)benzofuran-5-yl]-2,4-pyrimidinediamine]
337		O=C(COc1cccc(Nc2ncc(F)c(Nc3cccc(O)c3)n2)c1)N1CCNCC1 [R926772, 5-Fluoro-N4-(3-hydroxyphenyl)-N2-[3-(N-piperazino)carbonylmethyleneoxyphenyl]-2,4-pyrimidinediamine]
446		CNC(=O)COc1cccc(Nc2ncc(F)c(Nc3ccc(C#N)c(C)c3)n2)c1 [R926851, N4-(4-Cyano-3-methylphenyl)-5-fluoro-N2-[3-(N-methylamino)carbonylmethyleneoxyphenyl]-2,4-pyrimidinediamine]
1950		COc1cc(Nc2nc(Nc3cccc(O)c3)ncc2F)c(OC)cc1Cl [R926860, N4-(4-Chloro-2,5-dimethoxyphenyl)-5-fluoro-N2-(3-hydroxyphenyl)-2,4-primidinediamine]
3290		CNC(=O)COc1cccc(Nc2ncc(F)c(Nc3cccc(-c4nnc(-c5ccccc5)o4)c3)n2)c1 [R926870, 5-Fluoro-N2-[3-(N-methylamino)carbonylmethyleneoxyphenyl]-N4-[3-(2-phenyl-1,3,4-oxadiazol-5-yl)phenyl]-2,4-pyrimidinediamine]
2150		CNC(=O)COc1cccc(Nc2ncc(F)c(Nc3cccc(-c4nnc(-c5cccc(Cl)c5)o4)c3)n2)c1 [R926871, N4-[3-(2-(3-Chlorophenyl)-1,3,4-oxadiazol-5-yl)phenyl]-5-fluoro-N2-[3-(N-methylamino)carbonylmethyleneoxyphenyl]-2,4-pyrimidinediamine]
538		CNC(=O)COc1cccc(Nc2ncc(F)c(Nc3ccc4cc(C(=O)OC)[nH]c4c3)n2)c1 [R926904, 5-Fluoro-N2-[3-[(N-methylamino)carbonylmethyleneoxy]phenyl]-N4-[2-(methoxycarbonyl)-(1H)-indol-6-yl]-2,4-pyrimidinediamine]
794		CCOC(=O)C(C)(C)Oc1cccc(Nc2ncc(F)c(Nc3cccc(O)c3)n2)c1 [R926906, N2-[3-(Ethoxycarbonyl-1,1-dimethylmethyleneoxy)phenyl]-5-fluoro-N4-(3-hydroxyphenyl)-2,4-pyrimidinediamine]
764		CCOC(=O)C(C)(C)Oc1cccc(Nc2ncc(F)c(Nc3ccc4c(c3)OCCO4)n2)c1 [R926907, N2-[3-(Ethoxycarbonyl-1,1-dimethylmethyleneoxy)phenyl]-N4-(3,4-ethylenedioxyphenyl)-5-fluoro-2,4-pyrimidinediamine]
585		CCOC(=O)C(C)(C)Oc1cccc(Nc2ncc(F)c(Nc3ccc(C)c(O)c3)n2)c1 [R926908, N2-[3-(Ethoxycarbonyl-1,1-dimethylmethyleneoxy)phenyl]-5-fluoro-N4-(3-hydroxy-4-methylphenyl)-2,4-pyrimidinediamine]
379		CCOC(=O)C(C)(C)Oc1cccc(Nc2ncc(F)c(Nc3ccc4cc[nH]c4c3)n2)c1 [R926909, N2-[3-(Ethoxycarbonyl-1,1-dimethylmethyleneoxy)phenyl]-5-fluoro-N4-[(1H)-indol-6-yl]-2,4-pyrimidinediamine]
307		CNC(=O)COc1cccc(Nc2ncc(F)c(Nc3cccc(SC(F)(F)F)c3)n2)c1 [R926925, 5-Fluoro-N2-[3-[(N-methylamino)carbonylmethyleneoxy]phenyl]-N4-(3-trifluoromethylthiophenyl)-2,4-pyrimidinediamine]
4200		CCOC(=O)C1CCN(C(=O)c2cccc(Nc3nc(Nc4cccc(OCC(=O)NC)c4)ncc3F)c2)CC1 [R926941, N4-[3-[[4-(Ethoxycarbonyl)piperidino]carbonyl]phenyl]-5-fluoro-N2-[3-[(N-methylamino)carbonylmethyleneoxy]phenyl]-2,4-pyrimidinediamine]
	> 10000	O=C(O)Cc1cccc(Nc2ncc(F)c(Nc3cccc(CC(=O)O)c3)n2)c1 [R935117]
238		CC(C)(CO)c1ccc(Nc2ncc(F)c(Nc3cccc(O)c3)n2)cc1 [R935153, 5-Fluoro-N2-[4-(2-hydroxy-1,1-dimethylethyl)phenyl]-N4-(3-hydroxyphenyl)-2,4-pyrimidinediamine]
2970		CC(C)Oc1ccc(Nc2ncc(F)c(Nc3ccc4[nH]ncc4c3)n2)cc1 [R935266, 5-Fluoro-N4-(indazoline-5-yl)-N2-(4-isopropoxyphenyl)-2,4-pyrimidinediamine]
2460		Fc1cnc(Nc2ccc3c(c2)OCCO3)nc1Nc1ccc2[nH]ncc2c1 [R935267, N2-(3,4-Ethyelenedioxyphenyl)-5-fluoro-N4-(indazoline-5-yl)-2,4-pyrimidinediamine]
1060		Oc1cccc(Nc2ncc(F)c(Nc3ccc4[nH]ncc4c3)n2)c1 [R935268, 5-Fluoro-N2-(3-hydroxyphenyl)-N4-(indazoline-5-yl)-2,4-pyrimidinediamine]
1720		COC(=O)COc1cccc(Nc2ncc(F)c(Nc3ccc4[nH]ncc4c3)n2)c1 [R935269, 5-Fluoro-N4-(indazoline-5-yl)-N2-[3-(methoxycarbonylmethyleneoxy)phenyl]-2,4-pyrimidinediamine]
252		CC(C)Oc1ccc(Nc2nc(Nc3ccc4nn(C)cc4c3)ncc2F)cc1 [R935298, 5-Fluoro-N4-(4-isopropoxyphenyl)-N2-(2-methyl-indazoline-5-yl)-2,4-pyrimidinediamine]

More lines, now with the values behind:

Structure (SMILES)	IC50 [nM]	IC50 (Homo sapiens, Mast cell) [nM]
Fc1cnc(Cl)nc1Nc1ccc(Cl)nc1 [Compound R920400]	> 10000	
Cc1ccnc(Nc2nc(Cl)ncc2F)c1 [Compound R920401]	> 10000	
Fc1cnc(Cl)nc1Nc1cccc(OC(F)(F)F)c1 [Compound R920402]	> 10000	
Fc1cnc(Cl)nc1Nc1ccc2c(c1)OC(F)(F)O2 [Compound R920403]	> 10000	
Fc1cnc(Cl)nc1Nc1ccc2ncccc2c1 [Compound R920409]	> 10000	
CCOC(=O)C=C1NN=C(c2cccc(Nc3nc(Cl)ncc3F)c2)O1 [Compound R926873]	> 10000	
Fc1cnc(Cl)nc1Nc1ccc(OC(F)(F)F)cc1 [Compound R926875]	> 10000	
Fc1cnc(Cl)nc1Nc1ccc(C(F)(F)F)cc1 [Compound R926876]	> 10000	
Fc1cnc(Cl)nc1Nc1ccc(Cl)c(C(F)(F)F)c1 [Compound R926877]	> 10000	
COc1ccc(Nc2nc(Cl)ncc2F)cn1 [Compound R926878]	> 10000	
Fc1ccc(Nc2nc(Cl)ncc2F)cc1F [Compound R926882]	> 10000	
Fc1cnc(Cl)nc1Nc1ccc(Cl)c(Cl)c1 [Compound R926884]	> 10000	
Cc1cccc(Nc2nc(Cl)ncc2F)n1 [Compound R926888]	> 10000	
Fc1cnc(Cl)nc1Nc1ccc2cn[nH]c2c1 [Compound R935260]	> 10000	
Fc1cnc(Cl)nc1Nn1cccc1 [Compound R935275]	> 10000	
COc1ccc(Nc2nc(Cl)ncc2F)cc1CN1CCOCC1 [Compound R940313]	> 10000	
CC1(C)CN(c2cccc[n+]2[O-])c2cc(Nc3nc(Cl)ncc3F)ccc2O1 [Compound R940328]	> 10000	
CC1(C)CN(c2ccccn2)c2cc(Nc3nc(Cl)ncc3F)ccc2O1 [Compound R940336]	> 10000	
CC1(C)Oc2cc(Nc3nc(Cl)ncc3F)cnc2NC1=O [Compound R940344]	> 10000	
CN(C)C(=O)COc1cccc(Nc2ncc(F)c(Nc3ccc4c(c3)NCCO4)n2)c1 [R909290, N2-[3-(N,N-Dimethylaminocarbonylmethyleneoxy)phenyl]-N4-(1,4-benzoxazin-6-yl)-5-fluoro-2,4-pyrimidinediamine]	226	
CNC(=O)COc1cccc(Nc2ncc(F)c(Nc3ccc4c(c3)N(C(=N)N)CCO4)n2)c1 [R909292, N4-(4N-Carboxamidino-1,4-benzoxazin-6-yl)-5-fluoro-N2-[3-(N-methylamino)carbonylmethyleneoxyphenyl]-2,4-pyrimidinediamine]	1170	
